Experimental findings from patent US7396837B2, “Antitumoral analogs of lamellarins” (Pharma Mar, S.A.U., priority 2002, dated 2008) are described below.

Read-outs that look alike come from different tables or passages of the source.

Assay type in all cases: cell-based
In data set [1] the test system is SKOV-3. The data set is described as follows: SRB colorimetric cell growth inhibition assay, SKOV-3. Particulars: Homo sapiens; for GI50: SK-OV-3, SKOV-3, GI=growth inhibition, read-out: GI50 SKOV-3; for IC (TGI): TGI=total growth inhibition (cytostatic effect), read-out: TGI SKOV-3. An outline of the steps:
(§1)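 SRB colorimetric readout of cell growth/viability in 96-well format. Means ± SD from triplicate wells; GI (growth inhibition), TGI (total growth inhibition, cytostatic) and LC (cell killing, cytotoxic) parameters derived.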

For data set [2], the system named is SKOV-3. The description is as above. The following applies: Homo sapiens; for GI50: SK-OV-3, SKOV-3, GI=growth inhibition, read-out: GI50 SKOV-3; for IC (TGI): total growth inhibition (cytostatic effect), read-out: TGI SKOV-3. The essentials: (§2)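 Sulforhodamine B colorimetric assay of cell growth and viability, mean ± SD of triplicate wells. Parameters derived: GI (growth inhibition), TGI (total growth inhibition, cytostatic) and LC (cell killing, cytotoxic).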

A short description of data set [3]: SRB colorimetric cell growth inhibition assay, H-MEC-1. Particulars: human, H-MEC-1, LC=cell killing (cytotoxic effect), read-out: LC50 H-MEC-1. The essentials: as §1
Assay in data set [4]: as above
The following applies: human. An outline of the steps:
as §2

Data set [5] relates to H-MEC-1. The data set is described as above. Particulars: Homo sapiens, HMEC-1, H-MEC-1. An outline of the steps: as §1
In data set [6] the test system is HeLa. Put plainly: SRB colorimetric cell growth inhibition assay, HeLa. The following applies: Homo sapiens, HeLa. The essentials: (§3)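 Growth inhibition (GI), cytostatic total growth inhibition (TGI) and cytotoxic cell-kill (LC) parameters were calculated from SRB-stained cultures held under constant compound exposure, triplicates averaged.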
The test system of data set [7] is HeLa-APL. The data set is described as follows: SRB colorimetric cell growth inhibition assay, HeLa-APL (aplidine resistant). The following applies: Homo sapiens, HELA-APL. The essentials: as §3
Where [8] appears, read: SK-OV-3, SKOV-3, cell killing (cytotoxic effect), read-out: LC50 SKOV-3.
Where [9] appears, read: H-MEC-1, cell killing (cytotoxic effect), read-out: LC50 H-MEC-1.
The mark [10] stands for this setting: SK-OV-3, SKOV-3, LC=cell killing (cytotoxic effect), read-out: LC50 SKOV-3.

As usually defined, the GI50 is the concentration at which growth is held to half of that of the control. As to `COc1cc(-c2c3c4cc(OC)c(OC(=O)[C@@H](NC(=O)OC(C)(C)C)C(C)C)cc4oc(=O)c3n3ccc4cc(OC(=O)[C@@H](NC(=O)OC(C)(C)C)C(C)C)c(OC)cc4c23)ccc1OC(=O)[C@@H](NC(=O)OC(C)(C)C)C(C)C` [Compound 38], the CC50 in data set [1] (SK-OV-3, read-out: LC50 SKOV-3) was found to be 9.11 µM; in data set [3], 9.11 µM. Also, the 50% growth inhibitory concentration (GI50) in data set [2] was found to be 0.684 µM. In addition, the IC (TGI) in data set [2] (SK-OV-3, SKOV-3) amounted to 7.42 µM.
As to `COc1cc(-c2c3n(c4c(=O)oc5cc(OC(=O)[C@H](N)C(C)C)c(OC)cc5c24)CCc2cc(OC(=O)[C@H](N)C(C)C)c(OC)cc2-3)ccc1OC(=O)[C@H](N)C(C)C` [Compound 32], the GI50 in data set [2] stood at 1.86 µM. Further, the LC50 (concentration causing 50% net cell killing) in data set [2] (SK-OV-3, read-out: LC50 SKOV-3) amounted to 7.27 µM. Also, the IC (TGI) in data set [2] (SK-OV-3, SKOV-3) came out at 3.67 µM. The LC50 (concentration giving 50% net cell killing) in data set [4] worked out at 5.37 µM.
For the compound `COc1cc(-c2c3n(c4c(=O)oc5cc(OC(=O)[C@@H](N)Cc6c[nH]c7ccccc67)c(OC)cc5c24)CCc2cc(OC(=O)[C@@H](N)Cc4c[nH]c5ccccc45)c(OC)cc2-3)ccc1OC(=O)[C@@H](N)Cc1c[nH]c2ccccc12` [Compound 24], the GI50 in data set [2] amounted to 1.67 µM. Moreover, the LC50 (concentration causing 50% net cell killing) in data set [2] (setting [8]) is 6.9 µM. For the same compound, the IC (TGI) in data set [2] (SK-OV-3, SKOV-3) worked out at 3.39 µM. Besides, the LC50 (concentration giving 50% net cell killing) in data set [4] (setting [9]) was determined as 5.97 µM.
On to `COc1cc(-c2c3n(c4c(=O)oc5cc(O)c(OC)cc5c24)CCc2cc(O)c(OC)cc2-3)ccc1O` [Compound 109], for which the concentration for 50% growth inhibition (GI50) in data set [1] is 2.49 µM; in data set [5] (GI=growth inhibition), 0.917 µM. The CC50 in data set [1] (setting [10]) and in data set [3] (H-MEC-1 cells) was 19.9 µM each time. In addition, the IC (TGI) in data set [1] (SK-OV-3, SKOV-3) stood at 11.8 µM; in data set [5] (TGI=total growth inhibition (cytostatic effect), read-out: TGI H-MEC-1) it was 19.9 µM.
For `COc1cc(-c2c3c4cc(OC)c(OC(=O)[C@H](C)N)cc4oc(=O)c3n3ccc4cc(OC(=O)[C@H](C)N)c(OC)cc4c23)ccc1OC(=O)[C@H](C)N` [Compound 40], in data set [1], the GI50 came out at 0.0284 µM. Moreover, the CC50 in data set [1] (setting [10]) is 9.48 µM. Also, in data set [1] (SK-OV-3, SKOV-3), the IC (TGI) stood at 0.107 µM.
Take `COc1cc(-c2c3n(c4c(=O)oc5cc(OC(=O)CCc6ccccc6)c(OC)cc5c24)CCc2cc(OC(=O)CCc4ccccc4)c(OC)cc2-3)ccc1OC(=O)CCc1ccccc1` [Compound 11]: the 50% growth inhibitory concentration (GI50) stood at 0.208 µM in data set [6] (GI=growth inhibition, read-out: GI50 HELA) and 5.23 µM in data set [7] (GI=growth inhibition, read-out: GI50 HELA-APL). Moreover, the CC50 was 11.1 µM in data set [6] (cell killing (cytotoxic effect), read-out: LC50 HELA) and 11.1 µM in data set [7] (cell killing (cytotoxic effect), read-out: LC50 HELA-APL). Moreover, the IC (TGI) in data set [6] (total growth inhibition (cytostatic effect), read-out: TGI HELA) turned out to be 1.35 µM; in data set [7] (total growth inhibition (cytostatic effect), read-out: TGI HELA-APL), 11.1 µM.
With `COc1cc(-c2c3n(c4c(=O)oc5cc(OC(=O)[C@H](NC(=O)OC(C)(C)C)C(C)C)c(OC)cc5c24)CCc2cc(OC(=O)[C@H](NC(=O)OC(C)(C)C)C(C)C)c(OC)cc2-3)ccc1OC(=O)[C@H](NC(=O)OC(C)(C)C)C(C)C` [Compound 34], in data set [2], the concentration for 50% growth inhibition (GI50) was 1.27 µM. For the same compound, the LC50 (concentration causing 50% net cell killing) in data set [2] (setting [8]) was found to be 6.65 µM. In data set [2] (SK-OV-3, SKOV-3), the IC (TGI) amounted to 2.91 µM. In addition, the LC50 (concentration giving 50% net cell killing) in data set [4] (setting [9]) worked out at 3.44 µM.
